Source: patent USRE40050E1, “Method for cleaning and/or disinfecting food processing equipment” (priority 1999, dated 2008)

What was measured:
[1] = root beer, buffered pH about 11, integrated absorbance 440 to 700 nm vs control without CIP composition; ppm of active as per example
Description: For each of the five (5) experiments below, two quartz UV cells having a path length of 5.0 cm were each charged with 5.95 mL of a 0.1 molar sodium phosphate solution (to establish a buffered pH of about 11). The first cell was further charged with 0.6 mL of neat (conventional) root beer, as made commercially available. The second cell was further charged with 0.6 mL deionized water. Using the contents of the second cell as the blank, the absorbance of the resulting root beer solution was determined over the range of 440 to 700 nm, using a Hewlett-Packard 8452 UV/vis spectrophotometer. The absorbance over this wavelength range was integrated, and the percent (%) reduction in color of root beer was based on a comparison to the integrated absorbance of the control to which no CIP composition has been added.

[2] = system: Zygosaccharomyces bailii; experiment: Suspension test, percent microbes killed by CIP composition; type: cell-based; details: suspension 8.5 log bacteria/mL, 50 ppm CaCO3
Description: (§1) American Type Culture Collection cultures were transferred daily and maintained on agar slants containing the appropriate growth medium^1. A loopful of the culture was transferred into 10 ml of Butterfield's phosphate buffer pH 7.2 (NutraMax Products, Inc.) and agitated to obtain a homogeneous turbid suspension. The actual concentration of microbes in suspension was estimated by its serial dilution in Butterfield's phosphate buffer and subsequent transfer of 0.1 ml of the dilution series into a Petri plate containing the appropriate agar growth medium. The inoculated Petri plates were incubated for 48-72 hours (at about 37° C.) and the resulting colonies counted with a Quebec colony counter. The number of colonies on the Petri plates multiplied by the serial dilution factor is equal to the number of microbes in 0.1 ml of inoculum.
(§2) Suspension test: 1 ml of each microbial suspension was mixed with 9 ml of each CIP composition containing 50 ppm CaCO3 at 10/9 of the recommended use concentration (RUC) so that final concentration was exact RUC. After contact times described above, 1 ml of the mixture was put to 9 ml of neutralizer^2 from which 0.1 ml of sample was plated onto the appropriate agar and incubated at 28° C. for 48-72 hours before counting. The number of colonies present on the Petri plates multiplied by the serial dilution factor is equal to the number of microbes in 0.1 ml that survived in the sanitizer solution.
(§3) The per cent microbes killed by CIP composition is calculated by using the following equation: […]
(§4) One (1) mL of suspension and 9.0 mL of CIP composition were combined, resulting in the above data. The pH of the chlorine dioxide CIP composition was 5.8, the mixed halogen is sold by DiverseyLever under the name of Divosan MH and the peroxyacetic acid was an aqueous solution having about 65% water.

[3] = system: Rhizopus stolonifer; experiment: as above; type: cell-based; details: suspension 7.5 log bacteria/mL, 50 ppm CaCO3
Description: as §1, §2, §3, §4

[4] = system: Lactobacillus brevis; experiment: as above; type: cell-based; details: suspension 8.2 log bacteria/mL, 50 ppm CaCO3
Description: as §1, §2, §3, §4

[5] = system: Byssochlamys nivea; experiment: as above; type: cell-based; details: suspension 8.1 log bacteria/mL, 50 ppm CaCO3
Description: as §1, §2, §3, §4

[6] = system: Bacillus cerus; experiment: as above; type: cell-based; details: suspension 8.5 log bacteria/mL, 50 ppm CaCO3
Description: as §1, §2, §3, §4

[7] = system: Candida Albicans; experiment: as above; type: cell-based; details: suspension 8.0 log bacteria/mL, 50 ppm CaCO3
Description: as §1, §2, §3, §4

| Structure (SMILES) | % Reduction of Color [1] | percent bacteria killed, Zygosaccharomyces bailii ([2]; contact 2 minutes) | percent bacteria killed, Rhizopus stolonifer ([3]; contact 30 seconds) | percent bacteria killed, Rhizopus stolonifer ([3]; contact 2 minutes) | percent bacteria killed, Lactobacillus brevis ([4]; contact 2 minutes) | percent bacteria killed, Byssochlamys nivea ([5]; contact 30 seconds) | percent bacteria killed, Byssochlamys nivea ([5]; contact 2 minutes) | percent bacteria killed, Bacillus cerus ([6]; contact 2 minutes) | percent bacteria killed, Candida Albicans ([7]; contact 2 minutes) | percent bacteria killed, Zygosaccharomyces bailii ([2]; contact 30 seconds) | percent bacteria killed, Lactobacillus brevis ([4]; contact 30 seconds) | percent bacteria killed, Bacillus cerus ([6]; contact 30 seconds) | percent bacteria killed, Candida Albicans ([7]; contact 30 seconds) |
| --- | --- | --- | --- | --- | --- | --- | --- | --- | --- | --- | --- | --- | --- |
| [O][Cl+][O-] [Example 3, chlorine dioxide] | 56.09% |  |  |  |  |  |  |  |  |  |  |  |  |
| [Na+].[O-]Cl [Example 4, sodium hypochlorite] | 36.49% |  |  |  |  |  |  |  |  |  |  |  |  |
| CC(=O)OO [Example 6, peroxyacetic acid] | 25.76% |  |  |  |  |  |  |  |  |  |  |  |  |
| [O][Cl+][O-] [Example 7, chlorine dioxide] |  | ~99.9999% | About 99.99% | ~99.9999% | ~99.9999% | About 99.99% | ~99.9999% | ~99.9999% | About 99.9999% |  |  |  |  |
| CC(=O)OO [Example 9, Peroxyacetic acid] |  | ~99.9999% | <99% | <99% | ~99.9999% | About 99.9% | About 99.99% | ~99.9999% | About 99.9999% | About 99.99% | ~99.9999% | ~99.99% | About 99.99% |
